For assay [1], the target named is T1, caseinolytic protease proteolytic subunit of Plasmodium knowlesi (Pk-ClpP) (Plasmodium knowlesi, UniProt A0A384LAC0).
T1 construct: gene PKNH_0835300
T1 sequence (A0A384LAC0 141-372 limits assumed): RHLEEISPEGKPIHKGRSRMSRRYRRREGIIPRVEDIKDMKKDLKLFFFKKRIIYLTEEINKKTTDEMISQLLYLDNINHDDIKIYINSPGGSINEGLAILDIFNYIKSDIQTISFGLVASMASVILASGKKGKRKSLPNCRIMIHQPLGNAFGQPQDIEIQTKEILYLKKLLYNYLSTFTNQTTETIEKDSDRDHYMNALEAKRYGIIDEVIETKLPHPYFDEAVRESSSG
Briefly: chromogenic protease assay with N-CBZ-Glycine p-nitrophenyl ester on purified Pk-ClpP. It counts as biochemical.

In assay [2] the target is T1, caseinolytic protease proteolytic subunit of Plasmodium knowlesi (Pk-ClpP).
The target in assay [3] is caseinolytic protease proteolytic subunit (ClpP) of Plasmodium knowlesi (Plasmodium knowlesi). Briefly: SEC; purified Pk-ClpP on HiLoad 16/60 Superdex 200pg, 50 mM Tris-HCl pH 8.0, 50 mM NaCl, 0.5 mL/min; size by comparison with protein markers. In general terms: In gel filtration, larger molecules generally elute earlier.

Where two headings read alike, the source gives them in different places.

Broadly, the IC50 is the concentration at which inhibition is half-maximal. Turning to `CC(=O)O[C@H](/C=C\[C@H]1CC=CC(=O)O1)C[C@@H](OC(C)=O)[C@H](C)OC(C)=O` [Hyp, hyptolide], in assay [1] (read-out: IC50), the IC50 was 17.4 ± 1.44 nM. In general, Km refers to the substrate concentration at which the rate is half of its maximum. `O=C(CNC(=O)OCc1ccccc1)Oc1ccc([N+](=O)[O-])cc1` [N-CBZ-Glycine p-nitrophenyl ester]: in assay [2], the Km is 3.07 ± 0.18 µM.

Consider `O=S(=O)(F)Cc1ccccc1` [PMSF, phenylmethylsulfonyl fluoride, reference compound], for which, in assay [1], inhibition was half-maximal at 6.9 ± 0.18 nM (IC50). As a reminder, the stoichiometry N is the number of molecules, sites or subunits per partner or assembly. Turning to “caseinolytic protease proteolytic subunit (ClpP) of Plasmodium knowlesi (enzyme)”, in assay [3], the stoichiometry N is 7.

The values are drawn from article PMC9228282, “Catalytic Properties of Caseinolytic Protease Subunit of Plasmodium knowlesi and Its Inhibition by a Member of δ-Lactone, Hyptolide” (Molecules, 2022).
